Data: publication PMC9250534, “Synthesis and direct assay of large macrocycle diversities by combinatorial late-stage modification at picomole scale” (Nature Communications, 2022)
Numbered stars: 1 amine (or outer) side, 2 acyl side, 3 side chain; on linkers, the order of the positions; unused ones are H or OH. Bridge positions count the residues as written; N and C are the ends. Square brackets hold non-standard residues; d marks the D form. Peptide text beside a SMILES is read from it. * marks the point of attachment. Isoorotoyl = O=C(c1c[nH]c(=O)[nH]c1=O)*; Pyrazinecarbonyl = O=C(c1cnccn1)*; Phenoxyacetyl = O=C(COc1ccccc1)*; Cysteamide = C(CS[*:3])N[*:1]; X3 = O=C(Cc1c[nH]c2ccccc12)*; Mpa = O=C(O)CCS

Biological target: T1, thrombin (Homo sapiens, UniProt P00734)
T1 construct: consists of two polypeptide chains of 36 (light chain) and 259 amino acid
Assay: Thrombin inhibition screen of crude macrocycle reactions (residual thrombin activity, fluorogenic substrate Z-Gly-Gly-Arg-AMC)
Type: biochemical
Conditions: 10 µM macrocycle concentration; crude reactions, Library 1a-l; scaffold AA1-AA2-AA3 combined with 1-16 or '-'
Procedure, shortened: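 Each crude macrocycle (10 μM) was preincubated 10 min at room temperature with thrombin (2 nM final) in Tris-Cl pH 7.4 containing NaCl, MgCl2, CaCl2, 0.1% BSA, 0.01% Triton X-100 and 0.6% DMSO. Z-Gly-Gly-Arg-AMC (50 μM final) was then added. Inhibition came from fluorescence slopes relative to DMSO-only controls.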

Compound | percent residual thrombin activity [%]
O=C1CCSSCCNC(=O)C2(CC2)CNC(=O)[C@H](Cc2c[nH]cn2)NC(=O)[C@H](CCCCNC(=O)c2cnccn2)N1 [D1-H-B6/2] | 113.964
Cc1nnsc1C(=O)NCCCC[C@@H]1NC(=O)CCSSCCNC(=O)C2(CC2)CNC(=O)[C@H](Cc2cnc[nH]2)NC1=O [D1-H-B6/15] | 113.747
NCCCC[C@@H]1NC(=O)CCSSCCNC(=O)C2(CC2)CNC(=O)[C@H](Cc2cnc[nH]2)NC1=O [D1-H-B6/-] | 116.392
CC[C@H](C)[C@@H]1NC(=O)[C@H](CCCCNC(=O)COc2ccccc2)NC(=O)CCSSCCNC(=O)C2(CC2)CNC1=O [D1-I-B6/13] | 106.199
CC[C@H](C)[C@@H]1NC(=O)[C@H](CCCCNC(=O)c2ccco2)NC(=O)CCSSCCNC(=O)C2(CC2)CNC1=O [D1-I-B6/16] | 103.501
NC(=O)CCC1NC(=O)C(CCCCNC(=O)c2cnccn2)NC(=O)CCSSCCNC(=O)C2CCCN2C1=O (stereo not drawn) [D1-Q-B1/2] ([Mpa]K(Pyrazinecarbonyl)QP-Cysteamide; disulfide 1-C; configuration not given here) | 104.356
NC(=O)CC[C@@H]1NC(=O)[C@H](CCCCNC(=O)c2c[nH]c(=O)[nH]c2=O)NC(=O)CCSSCCNC(=O)[C@@H]2CCCN2C1=O [D1-Q-B1/11] ([Mpa]K(Isoorotoyl)QP-Cysteamide; disulfide 1-C) | 109.119
NC(=O)CC[C@@H]1NC(=O)[C@H](CCCCNC(=O)Cc2c[nH]c3ccccc23)NC(=O)CCSSCCNC(=O)[C@@H]2CCCN2C1=O [D1-Q-B1/12] ([Mpa]K(X3)QP-Cysteamide; disulfide 1-C) | 104.82
NC(=O)CC[C@@H]1NC(=O)[C@H](CCCCNC(=O)COc2ccccc2)NC(=O)CCSSCCNC(=O)[C@@H]2CCCN2C1=O [D1-Q-B1/13] ([Mpa]K(Phenoxyacetyl)QP-Cysteamide; disulfide 1-C) | 104.037
NCCCC[C@@H]1NC(=O)CCSSCCNC(=O)[C@@H]2CCCN2C(=O)[C@H](CCC(N)=O)NC1=O [D1-Q-B1/-] ([Mpa]KQP-Cysteamide; disulfide 1-C) | 108.142
COc1ccc(C(=O)NCCCC[C@@H]2NC(=O)CCSSCCNC(=O)c3ccc(cc3)CNC(=O)[C@H](CO)NC2=O)cn1 [D1-S-B3/10] | 111.469
O=C(COc1ccccc1)NCCCC[C@@H]1NC(=O)CCSSCCNC(=O)c2ccc(cc2)CNC(=O)[C@H](CO)NC1=O [D1-S-B3/13] | 115.568
Cc1nnsc1C(=O)NCCCC[C@@H]1NC(=O)CCSSCCNC(=O)c2ccc(cc2)CNC(=O)[C@H](CO)NC1=O [D1-S-B3/15] | 113.1
COc1ccc(C(=O)NCCCC[C@@H]2NC(=O)CCSSCCNC(=O)C3(CC3)CNC(=O)[C@H](CO)NC2=O)cn1 [D1-S-B6/10] | 102.192
O=C1CCSSCCNC(=O)C2(CC2)CNC(=O)[C@H](CO)NC(=O)[C@H](CCCCNC(=O)c2c[nH]c(=O)[nH]c2=O)N1 [D1-S-B6/11] | 103.758
CC(C)CC(=O)NCCCC[C@@H]1NC(=O)CCSSCCNC(=O)C2(CC2)CNC(=O)[C@H](C(C)C)NC1=O [D1-V-B6/8] | 110.303
CC(C)[C@@H]1NC(=O)[C@H](CCCCNC(=O)c2c[nH]c(=O)cn2)NC(=O)CCSSCCNC(=O)C2(CC2)CNC1=O [D1-V-B6/9] | 106.409
Cc1nnsc1C(=O)NCCCC[C@@H]1NC(=O)CCSSCCNC(=O)C2(CC2)CNC(=O)[C@H](C(C)C)NC1=O [D1-V-B6/15] | 112.935
CC(C)[C@@H]1NC(=O)[C@H](CCCCNC(=O)c2ccco2)NC(=O)CCSSCCNC(=O)C2(CC2)CNC1=O [D1-V-B6/16] | 107.867
CC[C@H](C)[C@@H]1NC(=O)CCNC(=O)[C@H](CCCNC(=O)c2ccc(OC)nc2)NC(=O)CCSSCCNC1=O [D2-B2-I/10] | 104.624
CC[C@H](C)[C@@H]1NC(=O)CCNC(=O)[C@H](CCCNC(=O)c2c[nH]c(=O)[nH]c2=O)NC(=O)CCSSCCNC1=O [D2-B2-I/11] | 113.677
CC[C@H](C)[C@@H]1NC(=O)CCNC(=O)[C@H](CCCNC(=O)c2ccco2)NC(=O)CCSSCCNC1=O [D2-B2-I/16] | 111.823
O=C1CCSSCCNC(=O)[C@@H](Cc2ccc(O)cc2)NC(=O)CCNC(=O)[C@H](CCCNC(=O)c2ccccc2)N1 [D2-B2-y/1] | 109.22
CC(C)CC(=O)NCCC[C@@H]1NC(=O)CCSSCCNC(=O)[C@H](CCC(N)=O)NC(=O)c2ccc(cc2)CNC1=O [D2-B3-Q/8] | 112.114

Compound | percent residual thrombin activity [%]
NC(=O)CC[C@@H]1NC(=O)c2ccc(cc2)CNC(=O)[C@H](CCCNC(=O)c2c[nH]c(=O)cn2)NC(=O)CCSSCCNC1=O [D2-B3-Q/9] | 109.29
NC(=O)CC[C@@H]1NC(=O)c2ccc(cc2)CNC(=O)[C@H](CCCNC(=O)c2c[nH]c(=O)[nH]c2=O)NC(=O)CCSSCCNC1=O [D2-B3-Q/11] | 114.755
CC(C)CC(=O)NCCC[C@@H]1NC(=O)CCSSCCNC(=O)[C@H](C(C)C)NC(=O)[C@H]2CCCN(C2)C1=O [D2-B4-V/8] | 110.86
COc1ccc(C(=O)NCCC[C@@H]2NC(=O)CCSSCCNC(=O)[C@H](C(C)C)NC(=O)[C@H]3CCCN(C3)C2=O)cn1 [D2-B4-V/10] | 108.833
CC(C)[C@@H]1NC(=O)[C@H]2CCCN(C2)C(=O)[C@H](CCCNC(=O)COc2ccccc2)NC(=O)CCSSCCNC1=O [D2-B4-V/13] | 112.633
CC(C)[C@@H]1NC(=O)[C@H]2CCCN(C2)C(=O)[C@H](CCCNC(=O)c2ccc(Cl)s2)NC(=O)CCSSCCNC1=O [D2-B4-V/14] | 102.581
O=C1CCSSCCNC(=O)[C@@H](Cc2ccccc2)NC(=O)[C@H]2CCCN(C2)C(=O)[C@H](CCCNC(=O)c2c[nH]c(=O)cn2)N1 [D2-B4-f/9] | 109.579
COc1ccc(C(=O)NCCC[C@@H]2NC(=O)CCSSCCNC(=O)[C@@H](Cc3ccccc3)NC(=O)[C@H]3CCCN(C3)C2=O)cn1 [D2-B4-f/10] | 107.675
O=C1CCSSCCNC(=O)[C@@H](Cc2ccccc2)NC(=O)[C@H]2CCCN(C2)C(=O)[C@H](CCCNC(=O)c2ccc(Cl)s2)N1 [D2-B4-f/14] | 82.899
Cc1cc(C(=O)NCCC[C@@H]2NC(=O)CCSSCCNC(=O)[C@H](Cc3cnc[nH]3)NC(=O)c3cccc(c3)CNC2=O)no1 [D2-B5-H/3] | 99.7053
O=C(Cc1c[nH]c2ccccc12)NCCC[C@@H]1NC(=O)CCSSCCNC(=O)[C@H](Cc2c[nH]cn2)NC(=O)c2cccc(c2)CNC1=O [D2-B5-H/12] | 99.4462
O=C(COc1ccccc1)NCCC[C@@H]1NC(=O)CCSSCCNC(=O)[C@H](Cc2cnc[nH]2)NC(=O)c2cccc(c2)CNC1=O [D2-B5-H/13] | 105.187
Cc1nnsc1C(=O)NCCC[C@@H]1NC(=O)CCSSCCNC(=O)[C@H](Cc2c[nH]cn2)NC(=O)c2cccc(c2)CNC1=O [D2-B5-H/15] | 105.304
O=C1CCSSCCNC(=O)[C@H](Cc2cnc[nH]2)NC(=O)c2cccc(c2)CNC(=O)[C@H](CCCNC(=O)c2ccco2)N1 [D2-B5-H/16] | 101.891
CC(C)CC(=O)NCCC[C@@H]1NC(=O)CCSSCCNC(=O)[C@H](Cc2ccc(O)cc2)NC(=O)c2cccc(c2)CNC1=O [D2-B5-Y/8] | 100.592
COc1ccc(C(=O)NCCC[C@@H]2NC(=O)CCSSCCNC(=O)[C@H](Cc3ccc(O)cc3)NC(=O)c3cccc(c3)CNC2=O)cn1 [D2-B5-Y/10] | 96.9489
O=C(Cc1c[nH]c2ccccc12)NCCC[C@@H]1NC(=O)CCSSCCNC(=O)[C@H](Cc2ccc(O)cc2)NC(=O)c2cccc(c2)CNC1=O [D2-B5-Y/12] | 99.266
O=C1CCSSCCNC(=O)[C@H](Cc2ccc(O)cc2)NC(=O)c2cccc(c2)CNC(=O)[C@H](CCCNC(=O)c2ccc(Cl)s2)N1 [D2-B5-Y/14] | 78.2447
Cc1nnsc1C(=O)NCCC[C@@H]1NC(=O)CCSSCCNC(=O)[C@H](Cc2ccc(O)cc2)NC(=O)c2cccc(c2)CNC1=O [D2-B5-Y/15] | 91.9104
O=C1CCSSCCNC(=O)[C@H](Cc2ccc(O)cc2)NC(=O)c2cccc(c2)CNC(=O)[C@H](CCCNC(=O)c2ccco2)N1 [D2-B5-Y/16] | 100.852
NCCC[C@@H]1NC(=O)CCSSCCNC(=O)[C@H](Cc2ccc(O)cc2)NC(=O)c2cccc(c2)CNC1=O [D2-B5-Y/-] | 110.083
CC(C)[C@H]1NC(=O)c2cccc(c2)CNC(=O)[C@H](CCCNC(=O)c2c[nH]c(=O)[nH]c2=O)NC(=O)CCSSCCNC1=O [D2-B5-v/11] | 108.83
CC(C)[C@H]1NC(=O)c2cccc(c2)CNC(=O)[C@H](CCCNC(=O)c2ccc(Cl)s2)NC(=O)CCSSCCNC1=O [D2-B5-v/14] | 98.5757
CC(C)[C@H]1NC(=O)c2cccc(c2)CNC(=O)[C@H](CCCNC(=O)c2ccco2)NC(=O)CCSSCCNC1=O [D2-B5-v/16] | 103.718
